The compounds below were run against T1, his-galectin-3 (Homo sapiens, UniProt P17931) (assay: TR-FRET assay (in vitro galectin-3 binding inhibitory activity test)). Settings: Table 2; compound at 20 μM; 60 nM his-galectin-3, 15 nM biotin-ASF; read-out: % Inhibitory activity (at 20 μM).
T1 construct: purchased Abcam
How it was run: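 Compound is premixed with his-galectin-3 (60 nM final), then biotin-ASF (15 nM), Tb anti-His antibody (2 nM) and streptavidin-d2 (20 nM) are added. After at least 3.5 hours at RT in HEPES/NaCl buffer with Tween 20 and BSA, TR-FRET is read at 615/665 nm. DMSO serves as the uninhibited control, ASF omission as background.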

T1 sequence (P17931 whole entry): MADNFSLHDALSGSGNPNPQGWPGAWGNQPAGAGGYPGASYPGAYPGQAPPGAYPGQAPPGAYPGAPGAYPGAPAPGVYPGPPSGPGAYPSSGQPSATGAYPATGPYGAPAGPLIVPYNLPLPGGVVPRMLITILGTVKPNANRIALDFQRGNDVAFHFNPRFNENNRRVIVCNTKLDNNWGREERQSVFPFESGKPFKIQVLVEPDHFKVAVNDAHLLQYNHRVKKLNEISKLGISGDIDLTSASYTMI

Row | inhibition at 20 µM [%] | Structure (SMILES)
1 | 50 to 75 | O=C(N[C@@H]1CCO[C@]12O[C@H](CO)[C@H](O)[C@H](n1cc(-c3cc(F)c(F)c(F)c3)nn1)[C@H]2O)c1cccc(-c2ccccc2Br)c1 [Compound A179, 2′-bromo-N-((4R,5S,7R,8R,9S,10R)-8,10-dihydroxy-7-(hydroxymethyl)-9-(4-(3,4,5-trifluorophenyl)-1H-1,2,3-triazol-1-yl)-1,6-dioxaspiro[4.5]decan-4-yl)-[1,1′-biphenyl]-3-carboxamide]
2 | > 75 | O=C(N[C@@H]1CCO[C@]12O[C@H](CO)[C@H](O)[C@H](n1cc(-c3cc(F)c(F)c(F)c3)nn1)[C@H]2O)c1coc2ccc(Br)cc12 [Compound A180, 5-bromo-N-((4R,5S,7R,8R,9S,10R)-8,10-dihydroxy-7-(hydroxymethyl)-9-(4-(3,4,5-trifluorophenyl)-1H-1,2,3-triazol-1-yl)-1,6-dioxaspiro[4.5]decan-4-yl)benzofuran-3-carboxamide]
3 | > 75 | O=C(N[C@@H]1CCO[C@]12O[C@H](CO)[C@H](O)[C@H](n1cc(-c3cc(F)c(F)c(F)c3)nn1)[C@H]2O)c1sc2ccccc2c1Br [Compound A181, 3-bromo-N-((4R,5S,7R,8R,9S,10R)-8,10-dihydroxy-7-(hydroxymethyl)-9-(4-(3,4,5-trifluorophenyl)-1H-1,2,3-triazol-1-yl)-1,6-dioxaspiro[4.5]decan-4-yl)benzo[b]thiophene-2-carboxamide]
4 | 50 to 75 | O=C(N[C@@H]1CCO[C@]12O[C@H](CO)[C@H](O)[C@H](n1cc(-c3cc(F)c(F)c(F)c3)nn1)[C@H]2O)c1nsc2ccccc12 [Compound A182, N-((4R,5S,7R,8R,9S,10R)-8,10-dihydroxy-7-(hydroxymethyl)-9-(4-(3,4,5-trifluorophenyl)-1H-1,2,3-triazol-1-yl)-1,6-dioxaspiro[4.5]decan-4-yl)benzo[d]isothiazole-3-carboxamide]
5 | < 25 | O=C(Cc1cccc(Oc2ccccc2)c1)N[C@@H]1CCO[C@]12O[C@H](CO)[C@H](O)[C@H](n1cc(-c3cc(F)c(F)c(F)c3)nn1)[C@H]2O [Compound A183, N-((4R,5S,7R,8R,9S,10R)-8,10-dihydroxy-7-(hydroxymethyl)-9-(4-(3,4,5-trifluorophenyl)-1H-1,2,3-triazol-1-yl)-1,6-dioxaspiro[4.5]decan-4-yl)-2-(3-phenoxyphenyl)acetamide]
6 | < 25 | O=C(c1cccc2ccccc12)N1CCC[C@]2(C1)O[C@H](CO)[C@H](O)[C@H](n1cc(-c3cc(F)c(F)c(F)c3)nn1)[C@H]2O [Compound A185, ((2R,3R,4S,5R,6R)-3,5-dihydroxy-2-(hydroxymethyl)-4-(4-(3,4,5-trifluorophenyl)-1H-1,2,3-triazol-1-yl)-1-oxa-8-azaspiro[5.5]undecan-8-yl)(naphthalen-1-yl)methanone]
7 | < 25 | O=C(c1ccc2ccccc2c1)N1CCC[C@]2(C1)O[C@H](CO)[C@H](O)[C@H](n1cc(-c3cc(F)c(F)c(F)c3)nn1)[C@H]2O [Compound A186, ((2R,3R,4S,5R,6R)-3,5-dihydroxy-2-(hydroxymethyl)-4-(4-(3,4,5-trifluorophenyl)-1H-1,2,3-triazol-1-yl)-1-oxa-8-azaspiro[5.5]undecan-8-yl)(naphthalen-2-yl)methanone]
8 | < 25 | O=C(c1cc2ccccc2s1)N1CCC[C@]2(C1)O[C@H](CO)[C@H](O)[C@H](n1cc(-c3cc(F)c(F)c(F)c3)nn1)[C@H]2O [Compound A187, benzo[b]thiophen-2-yl((2R,3R,4S,5R,6R)-3,5-dihydroxy-2-(hydroxymethyl)-4-(4-(3,4,5-trifluorophenyl)-1H-1,2,3-triazol-1-yl)-1-oxa-8-azaspiro[5.5]undecan-8-yl)methanone]
9 | < 25 | O=C(c1ccccn1)N1CCC[C@]2(C1)O[C@H](CO)[C@H](O)[C@H](n1cc(-c3cc(F)c(F)c(F)c3)nn1)[C@H]2O [Compound A188, ((2R,3R,4S,5R,6R)-3,5-dihydroxy-2-(hydroxymethyl)-4-(4-(3,4,5-trifluorophenyl)-1H-1,2,3-triazol-1-yl)-1-oxa-8-azaspiro[5.5]undecan-8-yl)(pyridin-2-yl)methanone]
10 | < 25 | O=C(c1ccncc1)N1CCC[C@]2(C1)O[C@H](CO)[C@H](O)[C@H](n1cc(-c3cc(F)c(F)c(F)c3)nn1)[C@H]2O [Compound A189, ((2R,3R,4S,5R,6R)-3,5-dihydroxy-2-(hydroxymethyl)-4-(4-(3,4,5-trifluorophenyl)-1H-1,2,3-triazol-1-yl)-1-oxa-8-azaspiro[5.5]undecan-8-yl)(pyridin-4-yl)methanone]
11 | < 25 | O=C(c1cncs1)N1CCC[C@]2(C1)O[C@H](CO)[C@H](O)[C@H](n1cc(-c3cc(F)c(F)c(F)c3)nn1)[C@H]2O [Compound A190, ((2R,3R,4S,5R,6R)-3,5-dihydroxy-2-(hydroxymethyl)-4-(4-(3,4,5-trifluorophenyl)-1H-1,2,3-triazol-1-yl)-1-oxa-8-azaspiro[5.5]undecan-8-yl)(thiazol-5-yl)methanone]
12 | < 25 | OC[C@H]1O[C@@]2(CCCN(c3ccccc3)C2)[C@H](O)[C@@H](n2cc(-c3cc(F)c(F)c(F)c3)nn2)[C@H]1O [Compound A191, (2R,3R,4S,5R,6R)-2-(hydroxymethyl)-8-phenyl-4-(4-(3,4,5-trifluorophenyl)-1H-1,2,3-triazol-1-yl)-1-oxa-8-azaspiro[5.5]undecane-3,5-diol]
13 | 25 to 50 | O=C(N[C@@H]1CCO[C@]12O[C@H](CO)[C@H](O)[C@H](n1cc(-c3cc(F)c(F)c(F)c3)nn1)[C@H]2O)c1ccc2c(Br)cccc2c1 [Compound A192, 5-bromo-N-((4R,5S,7R,8R,9S,10R)-8,10-dihydroxy-7-(hydroxymethyl)-9-(4-(3,4,5-trifluorophenyl)-1H-1,2,3-triazol-1-yl)-1,6-dioxaspiro[4.5]decan-4-yl)-2-naphthamide]
14 | 50 to 75 | O=C(N[C@@H]1CCO[C@]12O[C@H](CO)[C@H](O)[C@H](n1cc(-c3cc(F)c(F)c(F)c3)nn1)[C@H]2O)c1ccc2ccccc2c1Br [Compound A193, 1-bromo-N-((4R,5S,7R,8R,9S,10R)-8,10-dihydroxy-7-(hydroxymethyl)-9-(4-(3,4,5-trifluorophenyl)-1H-1,2,3-triazol-1-yl)-1,6-dioxaspiro[4.5]decan-4-yl)-2-naphthamide]
15 | 50 to 75 | O=C(N[C@@H]1CCO[C@]12O[C@H](CO)[C@H](O)[C@H](n1cc(-c3cc(F)c(F)c(F)c3)nn1)[C@H]2O)c1cccc2scnc12 [Compound A194, N-((4R,5S,7R,8R,9S,10R)-8,10-dihydroxy-7-(hydroxymethyl)-9-(4-(3,4,5-trifluorophenyl)-1H-1,2,3-triazol-1-yl)-1,6-dioxaspiro[4.5]decan-4-yl)benzo[d]thiazole-4-carboxamide]
16 | 25 to 50 | O=C(N[C@@H]1CCO[C@]12O[C@H](CO)[C@H](O)[C@H](n1cc(-c3cc(F)c(F)c(F)c3)nn1)[C@H]2O)c1ccc2c(Cl)cccc2c1 [Compound A195, 5-chloro-N-((4R,5S,7R,8R,9S,10R)-8,10-dihydroxy-7-(hydroxymethyl)-9-(4-(3,4,5-trifluorophenyl)-1H-1,2,3-triazol-1-yl)-1,6-dioxaspiro[4.5]decan-4-yl)-2-naphthamide]
17 | 50 to 75 | O=C(N[C@@H]1CCO[C@]12O[C@H](CO)[C@H](O)[C@H](n1cc(-c3cc(F)c(F)c(F)c3)nn1)[C@H]2O)c1ccc2sccc2c1 [Compound A196, N-((4R,5S,7R,8R,9S,10R)-8,10-dihydroxy-7-(hydroxymethyl)-9-(4-(3,4,5-trifluorophenyl)-1H-1,2,3-triazol-1-yl)-1,6-dioxaspiro[4.5]decan-4-yl)benzo[b]thiophene-5-carboxamide]
18 | 50 to 75 | O=C(N[C@@H]1CCO[C@]12O[C@H](CO)[C@H](O)[C@H](n1cc(-c3cc(F)c(F)c(F)c3)nn1)[C@H]2O)c1nsc2cc(Br)ccc12 [Compound A197, 6-bromo-N-((4R,5S,7R,8R,9S,10R)-8,10-dihydroxy-7-(hydroxymethyl)-9-(4-(3,4,5-trifluorophenyl)-1H-1,2,3-triazol-1-yl)-1,6-dioxaspiro[4.5]decan-4-yl)benzo[d]isothiazole-3-carboxamide]
19 | > 75 | O=C(N[C@@H]1CCO[C@]12O[C@H](CO)[C@H](O)[C@H](n1cc(-c3cc(F)c(F)c(F)c3)nn1)[C@H]2O)c1cccc2sccc12 [Compound A198, N-((4R,5S,7R,8R,9S,10R)-8,10-dihydroxy-7-(hydroxymethyl)-9-(4-(3,4,5-trifluorophenyl)-1H-1,2,3-triazol-1-yl)-1,6-dioxaspiro[4.5]decan-4-yl)benzo[b]thiophene-4-carboxamide]
20 | 25 to 50 | O=C(N[C@@H]1CCO[C@]12O[C@H](CO)[C@H](O)[C@H](n1cc(-c3cc(F)c(F)c(F)c3)nn1)[C@H]2O)c1noc2cc(Cl)ccc12 [Compound A199, 6-chloro-N-((4R,5S,7R,8R,9S,10R)-8,10-dihydroxy-7-(hydroxymethyl)-9-(4-(3,4,5-trifluorophenyl)-1H-1,2,3-triazol-1-yl)-1,6-dioxaspiro[4.5]decan-4-yl)benzo[d]isoxazole-3-carboxamide]

Same assay, conditions: Table 3, found values; compound at 20 μM; 60 nM his-galectin-3, 15 nM biotin-ASF; read-out: % Inhibitory activity (at 20 μM)

Row | inhibition at 20 µM [%] | Structure (SMILES)
21 | 73 | O=C(N[C@@H]1CCO[C@]12O[C@H](CO)[C@H](O)[C@H](n1cc(-c3cc(F)c(F)c(F)c3)nn1)[C@H]2O)c1nsc2ccccc12 [Compound A182, N-((4R,5S,7R,8R,9S,10R)-8,10-dihydroxy-7-(hydroxymethyl)-9-(4-(3,4,5-trifluorophenyl)-1H-1,2,3-triazol-1-yl)-1,6-dioxaspiro[4.5]decan-4-yl)benzo[d]isothiazole-3-carboxamide]
22 | 24 | OC[C@H]1O[C@@]2(CCCN(c3ccccc3)C2)[C@H](O)[C@@H](n2cc(-c3cc(F)c(F)c(F)c3)nn2)[C@H]1O [Compound A191, (2R,3R,4S,5R,6R)-2-(hydroxymethyl)-8-phenyl-4-(4-(3,4,5-trifluorophenyl)-1H-1,2,3-triazol-1-yl)-1-oxa-8-azaspiro[5.5]undecane-3,5-diol]

Same assay, conditions: read-out: % Inhibitory activity (at 20 μM), Table 2; compound at 20 μM; 60 nM his-galectin-3, 15 nM biotin-ASF

Row | Structure (SMILES) | inhibition at 20 µM [%]
23 | O=C(Cc1ccccc1)N1CCC[C@]2(C1)O[C@H](CO)[C@H](O)[C@H](n1cc(-c3cc(F)c(F)c(F)c3)nn1)[C@H]2O [Compound A184, 1-((2R,3R,4S,5R,6R)-3,5-dihydroxy-2-(hydroxymethyl)-4-(4-(3,4,5-trifluorophenyl)-1H-1,2,3-triazol-1-yl)-1-oxa-8-azaspiro[5.5]undecan-8-yl)-2-phenylethanone] | < 25
